According to PubChem BioAssay (NCI):
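Interpolation was linear, between the two tested concentrations surrounding the appropriate level; five concentrations were tested over 48 hours in 96-well plates. GI50: concentration for 50% inhibition of growth. TGI marks complete inhibition of growth.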

Key:
Assay in all cases: NCI anticancer screen, dose series, 48 h
[1] = tested on: 786-0 renal
[2] = tested on: A498 renal
[3] = tested on: A549 NSCLC
[4] = tested on: ACHN renal
[5] = tested on: BT-549 breast
[6] = tested on: CAKI-1 renal
[7] = tested on: CCRF-CEM leukemia
[8] = tested on: COLO 205 colon
[9] = tested on: DU-145 prostate
[10] = tested on: EKVX NSCLC
[11] = tested on: HCC-2998 colon
[12] = tested on: HCT-116 colon
[13] = tested on: HCT-15 colon
[14] = tested on: HL-60(TB) leukemia
[15] = tested on: HOP-62 NSCLC
[16] = tested on: HOP-92 NSCLC
[17] = tested on: HT29 colon
[18] = tested on: IGROV1 ovarian
[19] = tested on: K-562 leukemia
[20] = tested on: KM12 colon
[21] = tested on: LOX IMVI melanoma
[22] = tested on: M14 melanoma
[23] = tested on: MALME-3M melanoma
[24] = tested on: MCF7 breast
[25] = tested on: MDA-MB-231 breast
[26] = tested on: MDA-MB-435
[27] = tested on: MDA-N
[28] = tested on: MOLT-4 leukemia
[29] = tested on: NCI-H226 lung
[30] = tested on: NCI-H23 lung
[31] = tested on: NCI-H460 lung
[32] = tested on: NCI-H522 lung
[33] = tested on: NCI/ADR-RES ovarian
[34] = tested on: OVCAR-3 ovarian
[35] = tested on: OVCAR-4 ovarian
[36] = tested on: OVCAR-5 ovarian
[37] = tested on: OVCAR-8 ovarian
[38] = tested on: PC-3 prostate
[39] = tested on: RPMI-8226 leukemia
[40] = tested on: RXF 393 renal
[41] = tested on: SF-268 CNS
[42] = tested on: SF-295 CNS
[43] = tested on: SF-539 CNS
[44] = tested on: SK-MEL-2 melanoma
[45] = tested on: SK-MEL-28 melanoma
[46] = tested on: SK-MEL-5 melanoma
[47] = tested on: SK-OV-3 ovarian
[48] = tested on: SN12C renal
[49] = tested on: SNB-19 CNS
[50] = tested on: SNB-75 CNS
[51] = tested on: SR leukemia
[52] = tested on: SW-620 colon
[53] = tested on: T-47D breast
[54] = tested on: TK-10 renal
[55] = tested on: U251 CNS
[56] = tested on: UACC-257 melanoma
[57] = tested on: UACC-62 melanoma
[58] = tested on: UO-31 renal
[59] = tested on: HS 578T breast

CC(=O)OCCN1c2ccccc2Sc2cnccc21
TGI [1]: > 10 µM
TGI [2]: > 10 µM
TGI [3]: > 10 µM
TGI [4]: > 10 µM
TGI [5]: > 10 µM
TGI [6]: > 10 µM
TGI [7]: > 10 µM
TGI [8]: > 10 µM
TGI [9]: > 10 µM
TGI [10]: > 10 µM
TGI [11]: > 10 µM
TGI [12]: > 10 µM
TGI [13]: > 10 µM
TGI [14]: > 10 µM
TGI [15]: > 10 µM
TGI [16]: > 10 µM
TGI [17]: > 10 µM
TGI [18]: > 10 µM
TGI [19]: > 10 µM
TGI [20]: > 10 µM
TGI [21]: > 10 µM
TGI [22]: > 10 µM
TGI [23]: > 10 µM
TGI [24]: > 10 µM
TGI [25]: > 10 µM
TGI [26]: > 10 µM
TGI [27]: > 10 µM
TGI [28]: > 10 µM
TGI [29]: > 10 µM
TGI [30]: > 10 µM
TGI [31]: > 10 µM
TGI [32]: > 10 µM
TGI [33]: > 10 µM
TGI [34]: > 10 µM
TGI [35]: > 10 µM
TGI [36]: > 10 µM
TGI [37]: > 10 µM
TGI [38]: > 10 µM
TGI [39]: > 10 µM
TGI [40]: > 10 µM
TGI [41]: > 10 µM
TGI [42]: > 10 µM
TGI [43]: > 10 µM
TGI [44]: > 10 µM
TGI [45]: > 10 µM
TGI [46]: > 10 µM
TGI [47]: > 10 µM
TGI [48]: > 10 µM
TGI [49]: > 10 µM
TGI [50]: > 10 µM
TGI [51]: > 10 µM
TGI [52]: > 10 µM
TGI [53]: > 10 µM
TGI [54]: > 10 µM
TGI [55]: > 10 µM
TGI [56]: > 10 µM
TGI [57]: > 10 µM
TGI [58]: > 10 µM

CCC(C(=O)c1ccc(OC)c(OC)c1)N(C(=O)C(F)(F)F)C(C)c1ccccc1 (centres undefined)
TGI [3]: > 100 µM
TGI [4]: > 100 µM
TGI [6]: > 100 µM
TGI [7]: > 100 µM
TGI [8]: > 100 µM
TGI [9]: > 100 µM
TGI [10]: > 100 µM
TGI [11]: > 100 µM
TGI [12]: > 100 µM
TGI [13]: > 100 µM
TGI [14]: > 100 µM
TGI [15]: > 100 µM
TGI [17]: > 100 µM
TGI [18]: > 100 µM
TGI [19]: > 100 µM
TGI [21]: > 100 µM
TGI [22]: > 100 µM
TGI [23]: > 100 µM
TGI [24]: > 100 µM
TGI [25]: > 100 µM
TGI [26]: > 100 µM
TGI [27]: > 100 µM
TGI [28]: > 100 µM
TGI [31]: > 100 µM
TGI [32]: > 100 µM
TGI [33]: > 100 µM
TGI [34]: > 100 µM
TGI [36]: > 100 µM
TGI [37]: > 100 µM
TGI [38]: > 100 µM
TGI [39]: > 100 µM
TGI [41]: > 100 µM
TGI [42]: > 100 µM
TGI [45]: > 100 µM
TGI [46]: > 100 µM
TGI [47]: > 100 µM
TGI [49]: > 100 µM
TGI [51]: > 100 µM
TGI [52]: > 100 µM
TGI [53]: > 100 µM
TGI [54]: > 100 µM
TGI [55]: > 100 µM
TGI [56]: > 100 µM
TGI [57]: > 100 µM
TGI [58]: > 100 µM

Oc1ccc2ccccc2c1N=Nc1nccs1
GI50 [1]: 0.476 µM
TGI [1]: > 41.7 µM
GI50 [2]: 10.5 µM
TGI [2]: > 96.7 µM
GI50 [3]: 6.18 µM
TGI [3]: > 53.4 µM
GI50 [4]: 0.27 µM
TGI [4]: 14 µM
GI50 [5]: 4.75 µM
TGI [5]: 32.3 µM
GI50 [6]: 0.323 µM
TGI [6]: 11.6 µM
GI50 [7]: 0.0932 µM
GI50 [8]: 1.6 µM
TGI [8]: 13.6 µM
GI50 [9]: 2.17 µM
TGI [9]: 16 µM
GI50 [10]: 0.807 µM
TGI [10]: > 54.3 µM
GI50 [11]: 3.61 µM
TGI [11]: 33.2 µM
GI50 [12]: 0.213 µM
TGI [12]: 6.09 µM
GI50 [13]: 0.32 µM
TGI [13]: 19.6 µM
GI50 [14]: 0.267 µM
TGI [14]: > 100 µM
GI50 [15]: 3.87 µM
TGI [15]: 56.8 µM
GI50 [16]: 0.389 µM
TGI [16]: > 48.8 µM
GI50 [59]: 4.55 µM
TGI [59]: 45.2 µM
GI50 [17]: 1.72 µM
TGI [17]: 23.3 µM
GI50 [18]: 0.172 µM
TGI [18]: 6.95 µM
GI50 [19]: 0.438 µM
TGI [19]: > 100 µM
GI50 [20]: 0.629 µM
TGI [20]: 19.9 µM
GI50 [21]: 0.328 µM
TGI [21]: 17.5 µM
GI50 [22]: 2.97 µM
TGI [22]: 18.3 µM
GI50 [23]: 2.41 µM
TGI [23]: 15.4 µM
GI50 [24]: 0.471 µM
TGI [24]: 16.7 µM
GI50 [25]: 0.745 µM
TGI [25]: > 100 µM
GI50 [26]: 3.03 µM
TGI [26]: 27.9 µM
GI50 [28]: 0.186 µM
TGI [28]: > 46.9 µM
GI50 [29]: 2.75 µM
TGI [29]: > 52.9 µM
GI50 [30]: 5.83 µM
TGI [30]: 27.8 µM
GI50 [31]: 0.839 µM
TGI [31]: > 100 µM
GI50 [32]: 2.22 µM
TGI [32]: 12.4 µM
GI50 [33]: 0.393 µM
GI50 [34]: 0.417 µM
TGI [34]: 8.99 µM
GI50 [35]: 0.457 µM
TGI [35]: 16.8 µM
GI50 [36]: 5.61 µM
TGI [36]: 25.6 µM
GI50 [37]: 0.494 µM
TGI [37]: 42 µM
GI50 [38]: 1.13 µM
TGI [38]: > 66.1 µM
GI50 [39]: 0.187 µM
GI50 [40]: 3.33 µM
TGI [40]: > 59.2 µM
GI50 [41]: 0.312 µM
TGI [41]: > 100 µM
GI50 [42]: 3.93 µM
TGI [42]: > 57.4 µM
GI50 [43]: 2.33 µM
TGI [43]: 13.2 µM
GI50 [44]: 3.09 µM
TGI [44]: 34.5 µM
GI50 [45]: 2.55 µM
TGI [45]: 18.6 µM
GI50 [46]: 3.55 µM
TGI [46]: 15.6 µM
GI50 [47]: 1.98 µM
TGI [47]: 41.2 µM
GI50 [48]: 1.77 µM
TGI [48]: 44 µM
TGI [49]: > 100 µM
GI50 [50]: 1.46 µM
TGI [50]: 24.7 µM
GI50 [51]: 0.111 µM
GI50 [52]: 0.396 µM
TGI [52]: 19.5 µM
GI50 [53]: 1.71 µM
TGI [53]: 12.6 µM
GI50 [54]: 8.28 µM
TGI [54]: 22.2 µM
GI50 [55]: 0.29 µM
TGI [55]: 13.4 µM
GI50 [56]: 3.1 µM
TGI [56]: 16.4 µM
GI50 [57]: 2.3 µM
TGI [57]: 24.3 µM
GI50 [58]: 0.216 µM
TGI [58]: 11.9 µM
